The record followed here is patent publication US12233057B2, “Small molecules for inhibiting chemokine activity and/or cancer cells growth” (AlonBio Ltd., priority 2015, dated 2025).

Values after ≈ are worked out from the molar mass of the structure shown.

Experiment [1] relates to Jurkat human acute lymphoblastic leukemia cells. Put plainly: Cancer cell viability assay, propidium iodide staining (FACS). It counts as cell-based. The note with it: BKT300 at 78% purity, 24 hours. Here is the method:
(§1) The cancer cells were incubated in cell medium with 1% fetal calf serum (FCS) at a concentration of 2×10^5 cells/well at a final volume of 250 μl in 96-well plate. The tested small molecule was added to the cells at the indicated concentrations. The cells were incubated for 24 hours and the number of dead and viable cells was then evaluated by fluorescence-activated cell sorting (FACS), using propidium iodide (PI) staining. The IC50 of the small molecule-induced cell death was determined using GraphPad Prism software.
(§2) The in vitro effect of BKT300 (at 78% purity) on cancer cell viability was further evaluated using a variety of additional cancer cell lines, using procedures as described hereinabove with respect to MV4-11 cells.

Experiment [2] concerns H460 human large cell lung cancer cells. The description is as above. It counts as cell-based. Conditions: BKT300 at 78% purity, 10 μg/ml. Here is the method: as §1, §2
The subject of experiment [3] is H345 human small cell lung cancer cells. The description is as above. The class given is cell-based. Conditions: BKT300 at 78% purity, 8.5 μg/ml. Here is the method: as §1, §2
The subject of experiment [4] is Bjab human lymphoma cells. Described as above. The class given is cell-based. The note with it: BKT300 at 78% purity, 8.5 μg/ml. Here is the method: as §1, §2
In experiment [5] the test system is RPMI human multiple myeloma cells. Described as above. The class given is cell-based. The note with it: BKT300 at 78% purity, 24 hours. Here is the method: as §1, §2
In experiment [6] the test system is Raji human lymphoma cells. The experiment is described as above. It counts as cell-based. The note with it: BKT300 at 78% purity. Here is the method:
as §1, §2

The next experiment concerns SDF-1. Put plainly: Migration assay: Jurkat cells towards SDF-1 (Transwell). It counts as cell-based, human. The note with it: 10 μg/ml. Here is the method:
(§3) 600 μl of RPMI medium was added to the lower chambers of Transwell® transmigration plates, supplemented with 2 μg/ml of MIP3a, 100 ng/ml of SDF-1 or 10 ng/ml of MCP-1. The tested small molecule was added to the lower chambers at the indicated concentration, except in control samples. The MIP3a, SDF-1 or MCP-1 was incubated with the small molecule for 30 minutes at room temperature before the initiation of the migration assay. Following 30 minutes of incubation 2×10^5 immune cells were added to the upper chambers of the transmigration plates in a total volume of 100 μl. Cells which migrated within 3 hours to the bottom chamber of the Transwell® plates were counted using a FACScalibur™ flow cytometer.
To evaluate migration towards SDF-1, Jurkat cells were re-suspended in RPMI medium containing 1% fetal calf serum (FCS).

The subject of experiment [7] is MV4-11 human acute myeloid leukemia cells. Put plainly: Cancer cell viability assay, propidium iodide staining (FACS). It counts as cell-based. Here is the method: as §1
In order to assess the effect of BKT300 on cancer cells viability, the in vitro effect on MV4-11 human acute myeloid leukemia cells was evaluated. The MV4-11 cancer cells were incubated in RPMI cell medium with 1% fetal calf serum (FCS) at a concentration of 2×10^5 cells/well at a final volume of 250 μl in 96-well plate. BKT300 was added to the cells at the indicated concentrations. The cells were incubated for 24 hours and the number of dead and viable cells was then evaluated by fluorescence-activated cell sorting (FACS), using propidium iodide (PI) staining. The IC50 of […] cell death was determined using GraphPad Prism software.

The subject of a further experiment is MV4-11 (FLT3-ITD) cells. Put plainly: In vivo AML model: NSG mice transplanted with MV4-11 cells. Conditions: BKT300 at 98% purity, 1 mg/Kg intraperitoneally, three consecutive days from day 21; day 25; anti human CD45. Here is the method: The effect of BKT300 (at 98% purity) on the proliferation of AML cells in vivo was examined by treatment of NOD Scid gamma (NSG) mice transplanted with MV4-11 (FLT3-ITD) cells.
The mice were subjected to irradiation with 300 rad and on the following day were transplanted by IV injection with MV4-11 (FLT3-ITD) cells, 10×10^6 cells/mouse. 21 days following transplantation, the treated group was injected intraperitoneally with 1 mg/Kg of BKT300 (98% purity) per injection for three consecutive days. On day 25 following transplantation, mice were sacrificed and the survival of the human AML blasts in the blood, spleen and the bone marrow was evaluated using anti human CD45.

The target of another experiment is MIP3a (Homo sapiens, UniProt P78556). Put plainly: Migration assay: CD4+ T-cells toward MIP3a (Transwell). The note with it: BKT300 at 78% purity, 50 μg/ml. It counts as cell-based. Here is the method: as §3
To evaluate migration toward MIP3a, peripheral blood mononuclear cells (PBMCs) were isolated from heparinized venous blood by centrifugation over Ficoll Histopaque® 1077. CD4+ T cells were further isolated with RosetteSep™ human CD4+ T-cell Enrichment cocktail (StemCell Technologies Inc.), according to the manufacturer's instructions.
The 18 compounds uncovered by the screening assay were further tested for their ability, at final concentrations of 10 and 50 μg/ml, to inhibit the migration of human CD4+ T-cells toward MIP3a; and to inhibit the migration of immune cells in response to MCP-1 and SDF-1, using the procedures described in the Materials and Methods section hereinabove.

Another experiment deals with MCP-1 (Homo sapiens, UniProt P13500). Put plainly: Migration assay: THP-1 cells towards MCP-1 (Transwell). The class given is cell-based. Conditions: BKT300 at 78% purity. Here is the method: as §3
To evaluate migration towards MCP-1, JTHP-1 cells were re-suspended in RPMI medium containing 1% fetal calf serum (FCS).

The target in another experiment is MELK (Homo sapiens, UniProt Q14680). Put plainly: LanthaScreen europium kinase binding assay. Here is the method: (§4) In order to further characterize the effect of BKT300 on cell signaling, kinase profiling of BKT300 (at 78% purity) was performed (by the Life Technologies SelectScreen® Biochemical Profiling Lab) using a LanthaScreen® europium kinase binding assay to screen 440 kinases.
(§5) The principle of the LanthaScreen® assay is depicted in FIG. 13. Binding of an Alexa Fluor® conjugate or “tracer” to a kinase is detected by addition of a europium (Eu)-labeled anti-tag antibody. Binding of the tracer and antibody to a kinase results in a high degree of FRET, whereas displacement of the tracer with a kinase inhibitor results in a loss of FRET. The kinase tracers are based on ATP-competitive kinase inhibitors, making them suitable for detection of any compounds that bind to the ATP site. Inhibitors that bind the ATP site include both Type I kinase inhibitors, which bind solely to the ATP site, and Type II inhibitors (e.g., imatinib, sorafenib, BIRB-796), which bind to both the ATP site and a second site often referred to as the allosteric site.
For orientation: Time-resolved FRET reads energy transfer from a long-lived donor to a nearby acceptor.

A further experiment addresses MAP4K4 (HGK) (Homo sapiens, UniProt O95819). Put plainly: LanthaScreen europium kinase binding assay. The note with it: BKT300 at 78% purity. Here is the method: as §4, §5
A further experiment deals with MAP4K1 (HPK1) (Homo sapiens, UniProt Q92918). Put plainly: LanthaScreen europium kinase binding assay. Conditions: BKT300 at 78% purity. Here is the method:
as §4, §5

Sequence of MELK (Q14680 whole entry): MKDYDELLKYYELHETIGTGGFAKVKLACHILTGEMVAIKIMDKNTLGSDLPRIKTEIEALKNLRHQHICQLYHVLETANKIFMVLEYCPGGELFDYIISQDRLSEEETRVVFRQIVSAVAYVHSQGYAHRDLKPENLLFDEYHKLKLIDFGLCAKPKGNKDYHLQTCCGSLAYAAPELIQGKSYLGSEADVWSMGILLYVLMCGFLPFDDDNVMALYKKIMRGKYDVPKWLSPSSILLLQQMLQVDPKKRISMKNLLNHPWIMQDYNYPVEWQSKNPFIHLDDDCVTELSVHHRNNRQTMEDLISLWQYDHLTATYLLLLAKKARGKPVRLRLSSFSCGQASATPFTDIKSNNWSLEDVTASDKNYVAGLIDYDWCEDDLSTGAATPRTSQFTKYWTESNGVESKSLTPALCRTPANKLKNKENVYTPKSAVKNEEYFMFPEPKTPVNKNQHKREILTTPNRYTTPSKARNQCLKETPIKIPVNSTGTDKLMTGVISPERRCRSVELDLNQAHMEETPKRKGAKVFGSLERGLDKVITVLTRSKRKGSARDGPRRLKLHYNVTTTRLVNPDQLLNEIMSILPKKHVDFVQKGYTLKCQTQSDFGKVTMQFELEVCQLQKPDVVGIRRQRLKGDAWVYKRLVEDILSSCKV
Sequence of MCP-1 (P13500 24-99): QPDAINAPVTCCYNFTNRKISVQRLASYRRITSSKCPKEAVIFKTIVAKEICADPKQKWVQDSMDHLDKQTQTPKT
Sequence of MAP4K4 (HGK) (O95819 whole entry): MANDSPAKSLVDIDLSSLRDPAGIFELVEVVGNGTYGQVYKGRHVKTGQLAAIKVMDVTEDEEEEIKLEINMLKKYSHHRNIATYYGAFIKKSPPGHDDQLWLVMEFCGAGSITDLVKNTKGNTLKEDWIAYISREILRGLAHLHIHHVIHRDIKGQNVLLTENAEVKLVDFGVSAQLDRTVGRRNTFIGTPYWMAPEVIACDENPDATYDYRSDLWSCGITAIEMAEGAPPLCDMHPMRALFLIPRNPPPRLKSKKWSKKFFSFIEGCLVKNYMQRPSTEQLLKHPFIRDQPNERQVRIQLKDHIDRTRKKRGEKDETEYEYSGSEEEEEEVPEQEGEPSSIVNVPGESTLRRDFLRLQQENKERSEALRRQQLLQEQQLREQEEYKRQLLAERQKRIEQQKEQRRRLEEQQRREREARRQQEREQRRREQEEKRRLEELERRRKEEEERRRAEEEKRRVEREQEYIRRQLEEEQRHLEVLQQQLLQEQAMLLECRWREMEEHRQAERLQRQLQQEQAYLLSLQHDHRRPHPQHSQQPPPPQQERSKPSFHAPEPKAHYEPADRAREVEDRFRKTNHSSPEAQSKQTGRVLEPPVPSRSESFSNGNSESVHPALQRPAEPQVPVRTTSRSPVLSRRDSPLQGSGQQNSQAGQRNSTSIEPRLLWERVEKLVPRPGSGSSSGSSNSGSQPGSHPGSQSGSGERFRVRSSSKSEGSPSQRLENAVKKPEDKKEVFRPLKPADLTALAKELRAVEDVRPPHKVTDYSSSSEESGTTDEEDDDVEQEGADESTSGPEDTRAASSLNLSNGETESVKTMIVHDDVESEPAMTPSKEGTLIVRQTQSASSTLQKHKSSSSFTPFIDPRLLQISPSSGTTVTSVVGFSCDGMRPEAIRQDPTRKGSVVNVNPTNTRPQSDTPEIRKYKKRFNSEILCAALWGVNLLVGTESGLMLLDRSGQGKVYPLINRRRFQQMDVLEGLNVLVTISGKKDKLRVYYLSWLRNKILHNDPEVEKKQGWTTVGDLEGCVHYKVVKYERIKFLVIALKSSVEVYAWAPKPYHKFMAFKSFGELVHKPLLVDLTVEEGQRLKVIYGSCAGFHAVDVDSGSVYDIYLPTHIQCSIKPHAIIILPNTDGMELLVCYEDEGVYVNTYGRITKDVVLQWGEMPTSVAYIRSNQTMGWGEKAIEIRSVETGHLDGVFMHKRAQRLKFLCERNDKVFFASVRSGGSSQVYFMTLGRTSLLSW
Sequence of MAP4K1 (HPK1) (Q92918 whole entry): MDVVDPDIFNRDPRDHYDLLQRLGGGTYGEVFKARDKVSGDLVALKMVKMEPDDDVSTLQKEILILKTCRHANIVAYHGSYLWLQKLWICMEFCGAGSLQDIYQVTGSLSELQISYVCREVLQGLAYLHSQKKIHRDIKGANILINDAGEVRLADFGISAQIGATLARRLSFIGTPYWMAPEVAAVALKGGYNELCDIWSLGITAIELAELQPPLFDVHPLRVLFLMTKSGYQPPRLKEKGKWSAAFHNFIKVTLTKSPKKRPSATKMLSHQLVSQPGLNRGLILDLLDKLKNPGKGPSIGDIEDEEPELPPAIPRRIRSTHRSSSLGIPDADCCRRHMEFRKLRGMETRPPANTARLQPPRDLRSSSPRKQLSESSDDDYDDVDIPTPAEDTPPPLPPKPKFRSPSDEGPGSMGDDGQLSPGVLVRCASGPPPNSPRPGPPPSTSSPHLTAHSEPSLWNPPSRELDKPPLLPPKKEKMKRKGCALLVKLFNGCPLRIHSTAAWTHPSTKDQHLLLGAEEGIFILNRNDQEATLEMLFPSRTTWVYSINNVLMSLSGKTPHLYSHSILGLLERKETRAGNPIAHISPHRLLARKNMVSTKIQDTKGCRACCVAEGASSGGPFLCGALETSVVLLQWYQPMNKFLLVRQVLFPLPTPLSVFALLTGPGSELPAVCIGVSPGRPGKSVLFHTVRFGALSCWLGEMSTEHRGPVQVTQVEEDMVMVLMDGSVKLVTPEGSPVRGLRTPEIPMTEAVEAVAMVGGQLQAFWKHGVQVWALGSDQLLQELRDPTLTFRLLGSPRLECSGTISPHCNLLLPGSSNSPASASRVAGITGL
Sequence of MIP3a (P78556 27-96): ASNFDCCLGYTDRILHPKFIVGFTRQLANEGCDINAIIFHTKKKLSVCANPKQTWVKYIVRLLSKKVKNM

As for `CCCCCc1cc2cc(O)cc(Oc3c(O)cc(O)cc3CCCCC)c2c(=O)o1` [BKT300], the “Concentration at which cell death of Jurkat cells is induced (as low as; lowest tested)” value in [1] was not above 2 µg/mL. Moreover, in [1] (Homo sapiens, Jurkat, read-out: IC50 for induced death of Jurkat cells), the IC50 (usually the concentration that inhibits the measured activity by half) came to 3.5 µg/mL (≈ 8.21 µM). Also, the “Cell death of H460 cells” value in [2] is reported as “about 80%”. In addition, the “Cell death of H345 cells” value in experiment [3] is reported as “over 90%”. Besides, in [4], the “Cell death of Bjab cells” value is “about 30%”. In addition, the “Concentration at which cell death of RPMI cells is induced (as low as; lowest tested)” value in experiment [5] is not above 2 µg/mL. Moreover, the “Cell death of Raji cells” value in [6] (4.25 μg/ml) is “slight cell death”; in experiment [6] (8.5 μg/ml) it was “about 30%”. The “Inhibition of migration of Jurkat cells towards SDF-1” value with SDF-1 (BKT300 at 78% purity) and with SDF-1 (BKT300 at 98% purity) was “significantly inhibited” each time. In experiment [7] (BKT300 at 78% purity, 24 hours), the “Concentration at which cell death of MV4-11 cells is induced (as low as; lowest tested)” value was not above 2 µg/mL. For the same compound, in [7] (BKT300 at 98% purity, 4.25 μg/ml), the “Degree of cell death of MV4-11 cells, 98% purity compared with 78% purity” value is “considerably greater degree of cell death”. In addition, the “Inducing cell death of MV4-11 cells, 98% purity compared with 78% purity” value in experiment [7] (BKT300 at 98% purity, 2.125, 4.25, 8.5 μg/ml) is “significantly more effective”. In addition, in the experiment on MV4-11 (FLT3-ITD) cells, the “Number and percentage of AML cells in the bone marrow” value was “dramatically reduced”. Moreover, at MIP3a, the “Inhibition of CD4+ T-cell migration towards MIP3a” value is reported as “completely inhibited”. In addition, the “Effect on migration of THP-1 cells towards MCP-1” value at MCP-1 (10 μg/ml) was “no apparent effect”. Further, on MCP-1 (50 μg/ml), the “Inhibition of migration of THP-1 cells towards MCP-1” value is given as “strong inhibition”. Moreover, the % Inhibition – broadly, how much of the control response was suppressed – on MELK (BKT300 at 78% purity) amounted to 41%; at MAP4K4 (HGK) it was 40%; on MAP4K1 (HPK1), 45%. Also, the “Affinity of BKT300 to the kinase” value at MELK (based on the kinase screening assay summarized in Table 2, relatively low) was “few tens”.
